In ChEMBL document CHEMBL5726915, “Substituted pyrimidines containing acidic groups as TLR7 modulators” (2019):

Molecular target: T1, Toll-like receptor 7 (Homo sapiens, UniProt Q9NYK1)
T1 sequence (Q9NYK1 whole entry): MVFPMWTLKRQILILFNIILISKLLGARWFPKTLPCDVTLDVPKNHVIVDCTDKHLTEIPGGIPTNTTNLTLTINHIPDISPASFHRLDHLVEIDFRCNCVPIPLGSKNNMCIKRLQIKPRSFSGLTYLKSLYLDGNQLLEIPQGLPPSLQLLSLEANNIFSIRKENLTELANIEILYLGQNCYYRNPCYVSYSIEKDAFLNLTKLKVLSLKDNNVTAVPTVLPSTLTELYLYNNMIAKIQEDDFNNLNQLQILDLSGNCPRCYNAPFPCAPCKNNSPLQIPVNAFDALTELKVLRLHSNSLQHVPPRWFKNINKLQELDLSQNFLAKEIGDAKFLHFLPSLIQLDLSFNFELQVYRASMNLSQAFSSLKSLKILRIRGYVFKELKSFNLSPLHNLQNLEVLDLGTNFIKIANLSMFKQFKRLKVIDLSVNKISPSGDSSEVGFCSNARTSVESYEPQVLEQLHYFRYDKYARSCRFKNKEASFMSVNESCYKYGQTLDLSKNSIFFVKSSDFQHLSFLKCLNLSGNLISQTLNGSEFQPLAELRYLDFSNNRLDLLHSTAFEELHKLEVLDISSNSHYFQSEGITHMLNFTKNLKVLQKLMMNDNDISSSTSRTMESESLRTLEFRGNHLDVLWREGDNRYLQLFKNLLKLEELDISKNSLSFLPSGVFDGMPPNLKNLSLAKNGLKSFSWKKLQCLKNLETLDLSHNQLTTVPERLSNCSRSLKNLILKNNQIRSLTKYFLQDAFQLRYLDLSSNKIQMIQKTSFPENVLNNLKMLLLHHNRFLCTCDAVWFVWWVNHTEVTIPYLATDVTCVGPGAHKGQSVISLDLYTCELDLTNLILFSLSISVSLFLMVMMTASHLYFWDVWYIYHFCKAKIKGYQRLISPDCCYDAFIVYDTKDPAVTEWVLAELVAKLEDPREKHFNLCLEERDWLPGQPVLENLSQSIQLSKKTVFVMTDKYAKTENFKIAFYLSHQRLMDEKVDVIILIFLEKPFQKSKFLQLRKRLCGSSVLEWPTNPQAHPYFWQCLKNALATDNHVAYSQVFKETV
Experiment: HEK TLR7 Assay: HEK-Blue TLR7 cells were purchased from Invivogen (San Diego, Calif.). The following description was taken from the product information sheet."HEK-Blue hTLR7 cells are designed for studying the stimulation of human TLR7 (hTLR7) by monitoring the activation of NF-kB. HEK-Blue hTLR7 cells were obtained by co-transfection of the hTLR7 gene and an optimized secreted embryonic alkaline phosphatase (SEAP) reporter gene into HEK293 cells. The SEAP reporter gene is placed under the control of the IFN-b minimal promoter fused to five NF-kB and AP-1-binding sites. Stimulation with a TLR7 ligand activates NF-kB and AP-1 which induce the production of SEAP, which is detected by the HEK-Blue™ Detection cell culture medium."A typical assay protocol involved the following steps:1. Cells were cultured according to the product information sheet.2. 10 mM compound stock in DMSO were first diluted to 3 mM and then 3-fold serially diluted using DMSO to afford a 10-pt dilution.3. 3 μl of the diluted DMSO were added to 57 μl HEK-Blue Detection media for a further 20-fold dilution.4. 10 μl of the diluted compound in assay media were added into 40 μl cell culture (in HEK-Blue™ Detection media) in 384-well plate. Final cell concentration=8,000 cells per well.5. The plates were incubated at 37° C. in 5% CO2 for 16 h. SEAP was determined using a spectrophotometer at 620-655 nm.

Structure (SMILES) | EC50
CCCC[C@@H](CCSC)Nc1nc(N)nc(C)c1Cc1cc(Cc2nn[nH]n2)ccc1OC | < 100 nM
CCCC[C@@H](CCSC)Nc1nc(N)nc(C)c1Cc1cc(C(=O)NCCCP(=O)(O)O)ccc1OC | < 100 nM
CCCC[C@@H](CCS(C)(=O)=O)Nc1nc(N)nc(C)c1Cc1cc(Cc2nn[nH]n2)ccc1OC | < 100 nM
